In US20190008864A1, “PHARMACEUTICAL COMPOSITION CONTAINING GPR119 LIGAND AS EFFECTIVE INGREDIENT FOR PREVENTING OR TREATING NON-ALCOHOLIC STEATOHEPATITIS” (PHARMEDIX.CO., LTD., priority 2014, published 2019):

Legend:
[1] = tested on: fatty liver model induced by a high-fat diet; assay: Fatty liver model induced by high-fat diet; assay type: in vivo, C57BL/6J mice
From the text: In the present invention, a high fat diet (HFD: 60% fat calories, Research diets, D12492, US) was used as an obesity induction diet.
Six-week-old male C57BL/6J mice (Central Lab. Animal Inc., Seoul, Korea) were acclimated to an experimental environment for one week while being fed solid food, and then randomly divided into a control group and an experimental group for a high-fat diet using a randomized block design. The animal groups were fed for 12 weeks, and thus, fatty liver animal models were established. Fatty liver development was determined according to blood biochemical and histochemical analysis methods. The mice were orally fed with the high-fat diet only for six weeks, and in combination with a GPR119 ligand (10 mg/kg) suspended in 40% PEG400 once a day for five days every week. Choline-deficient, amino acid-fixed high-fat diet steatohepatitis models were prepared by feeding six-week-old male C57BL/6J mice (Central Lab. Animal Inc., Seoul) with a diet containing 60 kcal fat and 0.1% methionine for four weeks. After terminating the experiment, experimental animals fasted for 12 hours or more. Subsequently, blood, liver, and adipose tissues in intestines (epididymal fat, kidney-surrounding fat) were collected from the animals that had been anesthetized with diethyl ether and then washed with a 0.1 M phosphate buffered saline (pH 7.4), followed by being weighed. Blood collected from abdominal aortas was centrifuged at 3000 rpm for 20 minutes using SST tubes to separate serum.
A total cholesterol concentration and a total glucose concentration in serum from each of the aforementioned experimental animals raised for 12 weeks were measured as follows. Each of the total cholesterol concentration and the total glucose concentration in serum was measured twice by means of a commercial measurement kit (Bio Clinical Systems). The amount of alanine aminotransferase (ALT) in blood used as a liver function index was measured by means of a commercial analysis kit (Bio Clinical Systems, Korea).
The collected liver tissues were fixed with a 10% neutral formalin solution and then subjected to a common fixation procedure and dehydration process, followed by embedding the same in paraffin. The embedded tissues were sectioned to a thickness of 4 μm and stained with H&E. The stained tissues were observed by means of an optical microscope.
A predetermined amount of each of the liver tissues was homogenized in liquid nitrogen and a cell lysis buffer in a mortar, and then a lysed tissue solution was transferred to a new tube, followed by vortexing. […] A middle layer of the centrifuged solution was collected and then subjected to protein quantification by the Bradford assay. […] Expression changes of FAS and SREBP-1c proteins were measured by western blotting. […]

[2] = tested on: TNF-alpha mRNA; assay: TNF-alpha mRNA after LPS stimulation in RAW264.7 cells (real time PCR); assay type: cell-based, mouse; conditions: RAW264.7, 3 μM, 10 ng/ml LPS, 6 hours
Method: RAW264.7 cells cultured in 6-well plates were stabilized for 12 hours in a serum-free medium, and then exposed to 3 μM of MBX-2982 and 10 ng/ml of LPS. After 6 hours, RNA samples extracted with TRIZOL were reversely transcribed using a cDNA synthesis PCR kit to synthesize cDNAs. The cDNAs obtained through reverse transcription were used as a template, and primers for 5′ and 3′ flanking sequences of cDNAs to be amplified were as follows. Real time PCR (Mini-Opticon, Bio-Rad, US) was carried out and the expression levels of mRNA were investigated.
Inflammatory marker change results evaluated after LPS stimulation for RAW264.7 cells, which were derived from a mouse macrophage cell line, are illustrated in FIG. 18.

CCc1cnc(N2CCC(c3nc(COc4ccc(-n5cnnn5)cc4)cs3)CC2)nc1 [MBX2982, 4-((4-(1H-tetrazol-1-yl)phenoxy)methyl)-2-(1-(5-ethylpyrimidin-2-yl)piperidin-4-yl)thiazole]
fatty liver development ([1]; animal models fed with a high-fat diet): completely inhibited | fat weight in the tissue ([1]; high-fat diet mice, 10 mg/kg oral): significantly decreased | mRNA level of GPR119 in liver ([1]; mice administered ligand, compared to a control group): seven-fold increased | expression of TNF-alpha mRNA [2]: decreased
